# Entries after “also recorded” stand apart in the source; their conditions may differ.
# Key:
# [1] = tested on: CNV lesions; test: TUNEL staining for apoptosis within CNV lesions; format: in vivo, C57BL/6 mice; settings: periocular 200 μg on days 7 and 8 after laser
# Description: On days 7 and 8 after laser-induced rupture of Bruch's membrane, adult female C57BL/6 mice received a periocular injection of 0.2 mg of CGC-11144 or vehicle and then they were euthanized. Eyes were embedded in OCT and 10 μm serial sections were cut through CNV lesions and fixed with 1% paraformaldehyde for 10 minutes at room temperature. TUNEL staining was done using an ApopTag Fluorescein Red Kit (Intergen, Purchase, N.Y.) following the manufacturer's instructions. Adjacent sections were stained for GSA to visualize vascular cells on some sections; TUNEL staining was done to identify cell undergoing apoptosis on adjacent sections.
# [2] = tested on: subretinal neovascularization; test: Rhodopsin/VEGF transgenic mice, subretinal neovascularization; format: in vivo, rhodopsin/VEGF transgenic mice (V6 mice); settings: periocular injection at P7, measured P21; 100 μg CGC-11144, 1 mg CGC-11047, 750 μg CGC-11093
# From the text: Transgenic mice (V6 mice) in which the rhodopsin promoter drives expression of VEGF165 in photoreceptors have onset of VEGF expression at post-natal day 7 (P7) and soon after begin to develop neovascularization originating from the deep capillary bed that grows through the photoreceptor layer into the subretinal space. (Okamoto N et al., Amer. J. Pathol. 151: 281-91 (1997); Tobe T et al., Invest. Ophthalmol. Vis. Sci. 39: 180-188 (1998)). Hemizygous transgene positive mice were given a periocular injection of 100 μg of CGC-11144 (n=3), 1 mg of CGC-11047 (n=3), 750 μg of CGC-11093 (n=3) or vehicle (n=7) at P7. At post-natal day 21 (P21), mice were euthanized and the amount of subretinal neovascularization was quantified as previously described (Tobe, ibid.). Briefly, mice were anesthetized, perfused with fluorescein-labeled dextran, and the number of neovascular lesions on the outer surface of the retina and their total area were measured on retinal flat mounts by image analysis as described in Example 1.
structure (smiles),measurement,setting,value
CCNCCCCNCCCCNCCCCNCCCCNC/C=C/CNCCCCNCCCCNCCCCNCCCCNCC.Cl.Cl.Cl.Cl.Cl.Cl.Cl.Cl.Cl.Cl [CGC-11144],TUNEL-stained (apoptotic) cells within CNV lesions,[1],many TUNEL-stained cells within CNV lesions; also recorded: several red TUNEL-stained nuclei located within the CNV lesion
same,subretinal neovascularization vs vehicle,[2],significantly less subretinal neovascularization
